Experimental data taken from ChEMBL document CHEMBL3885881, “DrugMatrix”.

Species: Rattus norvegicus
Experiment: DrugMatrix - Regimen: Daily Repeat
Format: toxicity, organism-based, Sprague-Dawley
Set-up: regimen Daily Repeat, gender Male, age 6-8 weeks
Conditions: in vivo, po, 0 mg/kg, route oral GAVAGE, dose level Control, vehicle .5 % CMC; for ABSOLUTE BASOPHIL / ABSOLUTE EOSINOPHIL / ABSOLUTE LYMPHOCYTE / ABSOLUTE MONOCYTE / ABSOLUTE SEGMENTED NEUTROPHIL / BASOPHIL / EOSINOPHIL / ERYTHROCYTE COUNT / HEMATOCRIT / HEMOGLOBIN / LEUKOCYTE COUNT / LYMPHOCYTE / MEAN CORPUSCULAR HEMOGLOBIN / MEAN CORPUSCULAR HEMOGLOBIN CONCENTRATION / MEAN CORPUSCULAR VOLUME / MONOCYTE / NEUTROPHIL / PLATELET COUNT: tissue Blood; for ALANINE AMINOTRANSFERASE / ALBUMIN / ALKALINE PHOSPHATASE / ASPARTATE AMINOTRANSFERASE / BLOOD UREA NITROGEN / CHLORIDE / CHOLESTEROL / CREATINE PHOSPHOKINASE / CREATININE / GLUCOSE / LACTATE DEHYDROGENASE / LIPASE / PHOSPHORUS / POTASSIUM / SODIUM / TOTAL BILIRUBIN / TOTAL PROTEIN / URIC ACID: tissue Plasma

Compound: O=c1cc(-c2ccccc2)oc2c1ccc1ccccc12 [ALPHA-NAPHTHOFLAVONE]
- ABSOLUTE BASOPHIL (120 h, time 5 day): 92 cells/µL
- ABSOLUTE EOSINOPHIL (120 h, time 5 day): 52 cells/µL
- ABSOLUTE LYMPHOCYTE (120 h, time 5 day): 6560 cells/µL
- ABSOLUTE MONOCYTE (120 h, time 5 day): 160 cells/µL
- ABSOLUTE SEGMENTED NEUTROPHIL (120 h, time 5 day): 1130 cells/µL
- BASOPHIL (120 h, time 5 day): 1.14%
- EOSINOPHIL (120 h, time 5 day): 0.68%
- ERYTHROCYTE COUNT (120 h, time 5 day): 7.51 x10E6/uL
- HEMATOCRIT (120 h, time 5 day): 46.04%
- HEMOGLOBIN (120 h, time 5 day): 15.62 G/DL
- LEUKOCYTE COUNT (120 h, time 5 day): 8.03 x10E3/uL
- LYMPHOCYTE (120 h, time 5 day): 81.54%
- MEAN CORPUSCULAR HEMOGLOBIN (120 h, time 5 day): 20.84 pg
- MEAN CORPUSCULAR HEMOGLOBIN CONCENTRATION (120 h, time 5 day): 33.94 G/DL
- MEAN CORPUSCULAR VOLUME (120 h, time 5 day): 61.42 fL
- MONOCYTE (120 h, time 5 day): 2%
- NEUTROPHIL (120 h, time 5 day): 14.24%
- PLATELET COUNT (120 h, time 5 day): 1427.2 x10E3/uL
- ALANINE AMINOTRANSFERASE (120 h, time 5 day): 35.6 u/L
- ALBUMIN (120 h, time 5 day): 3.64 G/DL
- ALKALINE PHOSPHATASE (120 h, time 5 day): 233 u/L
- ASPARTATE AMINOTRANSFERASE (120 h, time 5 day): 81 u/L
- BLOOD UREA NITROGEN (120 h, time 5 day): 12 mg/dL
- CHLORIDE (120 h, time 5 day): 109.4 MEQ/L
- CHOLESTEROL (120 h, time 5 day): 47.6 mg/dL
- CREATINE PHOSPHOKINASE (120 h, time 5 day): 183.2 u/L
- CREATININE (120 h, time 5 day): 0.4 mg/dL
- GLUCOSE (120 h, time 5 day): 134.6 mg/dL
- LACTATE DEHYDROGENASE (120 h, time 5 day): 89.4 u/L
- LIPASE (120 h, time 5 day): 17.2 u/L
- PHOSPHORUS (120 h, time 5 day): 13.02 mg/dL
- POTASSIUM (120 h, time 5 day): 7 MEQ/L
- SODIUM (120 h, time 5 day): 149.6 MEQ/L
- TOTAL BILIRUBIN (120 h, time 5 day): 0.18 mg/dL
- TOTAL PROTEIN (120 h, time 5 day): 6.06 G/DL
- URIC ACID (120 h, time 5 day): 1.04 mg/dL
- ABSOLUTE BASOPHIL (2184 h, time 91 day): 130 cells/µL
- ABSOLUTE EOSINOPHIL (2184 h, time 91 day): 70 cells/µL
- ABSOLUTE LYMPHOCYTE (2184 h, time 91 day): 8670 cells/µL
- ABSOLUTE MONOCYTE (2184 h, time 91 day): 160 cells/µL
- ABSOLUTE SEGMENTED NEUTROPHIL (2184 h, time 91 day): 1530 cells/µL
- BASOPHIL (2184 h, time 91 day): 1.13%
- EOSINOPHIL (2184 h, time 91 day): 0.66%
- ERYTHROCYTE COUNT (2184 h, time 91 day): 9.13 x10E6/uL
- HEMATOCRIT (2184 h, time 91 day): 48.47%
- HEMOGLOBIN (2184 h, time 91 day): 16.56 G/DL
- LEUKOCYTE COUNT (2184 h, time 91 day): 10.5 x10E3/uL
- LYMPHOCYTE (2184 h, time 91 day): 81.63%
- MEAN CORPUSCULAR HEMOGLOBIN (2184 h, time 91 day): 18.16 pg
- MEAN CORPUSCULAR HEMOGLOBIN CONCENTRATION (2184 h, time 91 day): 34.14 G/DL
- MEAN CORPUSCULAR VOLUME (2184 h, time 91 day): 53.14 fL
- MONOCYTE (2184 h, time 91 day): 1.53%
- NEUTROPHIL (2184 h, time 91 day): 14.71%
- PLATELET COUNT (2184 h, time 91 day): 1280.22 x10E3/uL
- ALANINE AMINOTRANSFERASE (2184 h, time 91 day): 28.89 u/L
- ALBUMIN (2184 h, time 91 day): 3.69 G/DL
- ALKALINE PHOSPHATASE (2184 h, time 91 day): 101.11 u/L
- ASPARTATE AMINOTRANSFERASE (2184 h, time 91 day): 70.67 u/L
- BLOOD UREA NITROGEN (2184 h, time 91 day): 16.78 mg/dL
- CHLORIDE (2184 h, time 91 day): 104.56 MEQ/L
- CHOLESTEROL (2184 h, time 91 day): 58.78 mg/dL
- CREATINE PHOSPHOKINASE (2184 h, time 91 day): 91.22 u/L
- CREATININE (2184 h, time 91 day): 0.61 mg/dL
- GLUCOSE (2184 h, time 91 day): 142.33 mg/dL
- LACTATE DEHYDROGENASE (2184 h, time 91 day): 81.67 u/L
- LIPASE (2184 h, time 91 day): 13 u/L
- PHOSPHORUS (2184 h, time 91 day): 7.54 mg/dL
- POTASSIUM (2184 h, time 91 day): 6.27 MEQ/L
- SODIUM (2184 h, time 91 day): 149.89 MEQ/L
- TOTAL BILIRUBIN (2184 h, time 91 day): 0.19 mg/dL
- TOTAL PROTEIN (2184 h, time 91 day): 7.12 G/DL
- URIC ACID (2184 h, time 91 day): 0.97 mg/dL
- ABSOLUTE BASOPHIL ([…], time 28 day): 150 cells/µL
- ABSOLUTE EOSINOPHIL ([…], time 28 day): 54 cells/µL
- ABSOLUTE LYMPHOCYTE ([…], time 28 day): 8890 cells/µL
- ABSOLUTE MONOCYTE ([…], time 28 day): 190 cells/µL
- ABSOLUTE SEGMENTED NEUTROPHIL ([…], time 28 day): 2250 cells/µL
- BASOPHIL ([…], time 28 day): 1.26%
- EOSINOPHIL ([…], time 28 day): 0.46%
- ERYTHROCYTE COUNT ([…], time 28 day): 8.34 x10E6/uL
- HEMATOCRIT ([…], time 28 day): 48.66%
- HEMOGLOBIN ([…], time 28 day): 16.04 G/DL
- LEUKOCYTE COUNT ([…], time 28 day): 11.58 x10E3/uL
- LYMPHOCYTE ([…], time 28 day): 76.74%
- MEAN CORPUSCULAR HEMOGLOBIN ([…], time 28 day): 19.2 pg
- MEAN CORPUSCULAR HEMOGLOBIN CONCENTRATION ([…], time 28 day): 32.92 G/DL
- MEAN CORPUSCULAR VOLUME ([…], time 28 day): 58.32 fL
- MONOCYTE ([…], time 28 day): 1.76%
- NEUTROPHIL ([…], time 28 day): 19.44%
- PLATELET COUNT ([…], time 28 day): 1282.6 x10E3/uL
- ALANINE AMINOTRANSFERASE ([…], time 28 day): 27 u/L
- ALBUMIN ([…], time 28 day): 3.68 G/DL
- ALKALINE PHOSPHATASE ([…], time 28 day): 146.2 u/L
- ASPARTATE AMINOTRANSFERASE ([…], time 28 day): 66.6 u/L
- BLOOD UREA NITROGEN ([…], time 28 day): 12.4 mg/dL
- CHLORIDE ([…], time 28 day): 104.6 MEQ/L
- CHOLESTEROL ([…], time 28 day): 59.6 mg/dL
- CREATINE PHOSPHOKINASE ([…], time 28 day): 121.8 u/L
- CREATININE ([…], time 28 day): 0.6 mg/dL
- GLUCOSE ([…], time 28 day): 143 mg/dL
- LACTATE DEHYDROGENASE ([…], time 28 day): 87.8 u/L
- LIPASE ([…], time 28 day): 17.4 u/L
- PHOSPHORUS ([…], time 28 day): 8.68 mg/dL
- POTASSIUM ([…], time 28 day): 6.02 MEQ/L
- SODIUM ([…], time 28 day): 152.8 MEQ/L
- TOTAL BILIRUBIN ([…], time 28 day): 0.26 mg/dL
- TOTAL PROTEIN ([…], time 28 day): 6.92 G/DL
- URIC ACID ([…], time 28 day): 0.52 mg/dL
